Tested on: not listed separately
Experiment: Solubility test (water), Chinese Pharmacopoeia 2015
Format: physicochemical
Conditions: 25° C.±2° C., dissolution within 30 minutes
Protocol: The series of compounds synthesized in Examples 1-24 were subjected to solubility test (water), according to the solubility test methods in Chinese Pharmacopoeia, 2015 Edition. The specific test operations and evaluation criteria are as follows: An appropriate amount (1 mg-10 mg) of finely powdered compound was weighed, placed in a certain volume of solvent at 25° C.±2° C., and shaken vigorously for 30 seconds every 5 minutes; the dissolution within 30 minutes was observed. It was considered completely dissolved if there were no visible particles or droplets of the solute. [table]

SMILES	Water solubility test Result
CN1CCN(Cc2ccc(C(=O)OCCn3cc(-c4cc5nccc(Oc6ccc(NC(=O)C7(C(=O)Nc8ccc(F)cc8)CC7)cc6F)c5s4)cn3)cc2)CC1 [td32-4P21, 2-(4-(7-(2-fluoro-4-(1-((4-fluorophenyl)carbamoyl)cyclopropane-1-carboxamide)phenoxy)thieno[3,2-b]pyridin-2-yl)-1H-pyrazol-1-yl)ethyl 4-((methylpiperazin-1-yl)methyl) benzoate]	D (1 g of solute is soluble in 30~100 mL of sovent)
CC(C)CC(N)C(=O)OCCn1cc(-c2cc3nccc(Oc4ccc(NC(=O)C5(C(=O)Nc6ccc(F)cc6)CC5)cc4F)c3s2)cn1 (centres unmarked) [td32-4P8, 2-(4-(7-(2-fluoro-4-(1-((4-fluorophenyl)carbamoyl)cyclopropane-1-carboxamide)phenoxy)thieno[3,2-b]pyridin-2-yl)-1H-pyrazolyl-1-yl)ethyl leucinate]	E (1 g of solute is soluble in 100~1000 mL of sovent)
NC(Cc1ccccc1)C(=O)OCCn1cc(-c2cc3nccc(Oc4ccc(NC(=O)C5(C(=O)Nc6ccc(F)cc6)CC5)cc4F)c3s2)cn1 [td32-4P12, 2-(4-(7-(2-fluoro-4-(1-((4-fluorophenyl)carbamoyl)cyclopropane-1-carboxamide)phenoxy)thieno[3,2-b]pyridin-2-yl)-1H-pyrazolyl-1-yl)ethyl L-phenylalaninate]	F (1 g of solute is soluble in 1000~10000 mL of sovent)
CC(C(=O)OCCn1cc(-c2cc3nccc(Oc4ccc(NC(=O)C5(C(=O)Nc6ccc(F)cc6)CC5)cc4F)c3s2)cn1)N(C)C (centres unmarked) [td32-4P18, 2-(4-(7-(2-fluoro-4-(1-((4-fluorophenyl)carbamoyl)cyclopropane-1-carboxamide)phenoxy)thieno[3,2-b]pyridin-2-yl)-1H-pyrazolyl-1-yl)ethyl N,N-dimethyl alaninate]	D (1 g of solute is soluble in 30~100 mL of sovent)
O=C(OCCn1cc(-c2cc3nccc(Oc4ccc(NC(=O)C5(C(=O)Nc6ccc(F)cc6)CC5)cc4F)c3s2)cn1)c1cccc(CN2CCOCC2)c1 [td32-4P20, 2-(4-(7-(2-fluoro-4-(1-((4-fluorophenyl)carbamoyl)cyclopropane-1-carboxamide)phenoxy)thieno[3,2-b]pyridin-2-yl)-1H-pyrazolyl-1-yl)ethyl 3-(morpholinylmethyl) benzoate]	F (1 g of solute is soluble in 1000~10000 mL of sovent)
O=C(OCCn1cc(-c2cc3nccc(Oc4ccc(NC(=O)C5(C(=O)Nc6ccc(F)cc6)CC5)cc4F)c3s2)cn1)c1cccc(CN2CCCC2)c1 [td32-4P24]	D (1 g of solute is soluble in 30~100 mL of sovent)
NC(=O)CC(N)C(=O)OCCn1cc(-c2cc3nccc(Oc4ccc(NC(=O)C5(C(=O)Nc6ccc(F)cc6)CC5)cc4F)c3s2)cn1 (centres unmarked) [td32-4P14, 2-(4-(7-(2-fluoro-4-(1-((4-fluorophenyl)carbamoyl)cyclopropane-1-carboxamide)phenoxy)thieno[3,2-b]pyridin-2-yl)-1H-pyrazolyl-1-yl)ethyl asparaginate]	D (1 g of solute is soluble in 30~100 mL of sovent)
O=C(OCCn1cc(-c2cc3nccc(Oc4ccc(NC(=O)C5(C(=O)Nc6ccc(F)cc6)CC5)cc4F)c3s2)cn1)C1CCCN1 (centres unmarked) [td32-4P13, 2-(4-(7-(2-fluoro-4-(1-((4-fluorophenyl)carbamoyl)cyclopropane-1-carboxamide)phenoxy)thieno[3,2-b]pyridin-2-yl)-1H-pyrazolyl-1-yl)ethyl prolinate]	E (1 g of solute is soluble in 100~1000 mL of sovent)
O=C(OCCn1cc(-c2cc3nccc(Oc4ccc(NC(=O)C5(C(=O)Nc6ccc(F)cc6)CC5)cc4F)c3s2)cn1)c1ccc(CN2CCCC2)cc1 [td32-4P23]	D (1 g of solute is soluble in 30~100 mL of sovent)
O=C(CN1CCOCC1)OCCn1cc(-c2cc3nccc(Oc4ccc(NC(=O)C5(C(=O)Nc6ccc(F)cc6)CC5)cc4F)c3s2)cn1 [td32-4P5, 2-(4-(7-(2-fluoro-4-(1-((4-fluorophenyl)carbamoyl)cyclopropane-1-carboxamide)phenoxy)thieno[3,2-b]pyridin-2-yl)-1H-pyrazolyl-1-yl)ethyl 2-morpholine acetate]	C (1 g of solute is soluble in 10~30 mL of sovent)
O=C(O)CCC(=O)OCCn1cc(-c2cc3nccc(Oc4ccc(NC(=O)C5(C(=O)Nc6ccc(F)cc6)CC5)cc4F)c3s2)cn1 [td32-4P1, 4-(2-(4-(7-(2-fluoro-4-(1-((4-fluorophenyl)carbamoyl)cyclopropane-1-carboxamide)phenoxy)thieno[3,2-b]pyridin-2-yl)-1H-pyrazolyl-1-yl)ethoxy)-4-oxobutyric acid]	F (1 g of solute is soluble in 1000~10000 mL of sovent)
CN1CCN(Cc2cccc(C(=O)OCCn3cc(-c4cc5nccc(Oc6ccc(NC(=O)C7(C(=O)Nc8ccc(F)cc8)CC7)cc6F)c5s4)cn3)c2)CC1 [td32-4P22, 2-(4-(7-(2-fluoro-4-(1-((4-fluorophenyl)carbamoyl)cyclopropane-1-carboxamide)phenoxy)thieno[3,2-b]pyridin-2-yl)-1H-pyrazolyl-1-yl)ethyl 3-((methylpiperazin-1-yl)methyl) benzoate]	D (1 g of solute is soluble in 30~100 mL of sovent)
CC(N)C(=O)OCCn1cc(-c2cc3nccc(Oc4ccc(NC(=O)C5(C(=O)Nc6ccc(F)cc6)CC5)cc4F)c3s2)cn1 (centres unmarked) [td32-4P7, 2-(4-(7-(2-fluoro-4-(1-((4-fluorophenyl)carbamoyl)cyclopropane-1-carboxamide)phenoxy)thieno[3,2-b]pyridin-2-yl)-1H-pyrazolyl-1-yl)ethyl alaninate]	D (1 g of solute is soluble in 30~100 mL of sovent)
O=C(OCCn1cc(-c2cc3nccc(Oc4ccc(NC(=O)C5(C(=O)Nc6ccc(F)cc6)CC5)cc4F)c3s2)cn1)c1ccc(CN2CCOCC2)cc1 [td32-4P19, 2-(4-(7-(2-fluoro-4-(1-((4-fluorophenyl)carbamoyl)cyclopropane-1-carboxamide)phenoxy)thieno[3,2-b]pyridin-2-yl)-1H-pyrazolyl-1-yl)ethyl 4-(morpholinylmethyl) benzoate]	F (1 g of solute is soluble in 1000~10000 mL of sovent)
COC(CNCC(=O)OCCn1cc(-c2cc3nccc(Oc4ccc(NC(=O)C5(C(=O)Nc6ccc(F)cc6)CC5)cc4F)c3s2)cn1)OC [td32-4P17, 2-(4-(7-(2-fluoro-4-(1-((4-fluorophenyl)carbamoyl)cyclopropane-1-carboxamide)phenoxy)thieno[3,2-b]pyridin-2-yl)-1H-pyrazolyl-1-yl)ethyl(2,2-dimethoxyethyl) glycinate]	E (1 g of solute is soluble in 100~1000 mL of sovent)
CCN(CC)CC(=O)OCCn1cc(-c2cc3nccc(Oc4ccc(NC(=O)C5(C(=O)Nc6ccc(F)cc6)CC5)cc4F)c3s2)cn1 [td32-4P4, 2-(4-(7-(2-fluoro-4-(1-((4-fluorophenyl)carbamoyl)cyclopropane-1-carboxamide)phenoxy)thieno[3,2-b]pyridin-2-yl)-1H-pyrazolyl-1-yl)ethyldiethyl glycinate]	C (1 g of solute is soluble in 10~30 mL of sovent)
NCC(=O)OCCn1cc(-c2cc3nccc(Oc4ccc(NC(=O)C5(C(=O)Nc6ccc(F)cc6)CC5)cc4F)c3s2)cn1 [td32-4P6, 2-(4-(7-(2-fluoro-4-(1-((4-fluorophenyl)carbamoyl)cyclopropane-1-carboxamide)phenoxy)thieno[3,2-b]pyridin-2-yl)-1H-pyrazolyl-1-yl)ethyl glycinate]	C (1 g of solute is soluble in 10~30 mL of sovent)
CSCCC(N)C(=O)OCCn1cc(-c2cc3nccc(Oc4ccc(NC(=O)C5(C(=O)Nc6ccc(F)cc6)CC5)cc4F)c3s2)cn1 (centres unmarked) [td32-4P11, 2-(4-(7-(2-fluoro-4-(1-((4-fluorophenyl)carbamoyl)cyclopropane-1-carboxamide)phenoxy)thieno[3,2-b]pyridin-2-yl)-1H-pyrazolyl-1-yl)ethyl methioninate]	E (1 g of solute is soluble in 100~1000 mL of sovent)
NC(=O)CCC(N)C(=O)OCCn1cc(-c2cc3nccc(Oc4ccc(NC(=O)C5(C(=O)Nc6ccc(F)cc6)CC5)cc4F)c3s2)cn1 (centres unmarked) [td32-4P15, 2-(4-(7-(2-fluoro-4-(1-((4-fluorophenyl)carbamoyl)cyclopropane-1-carboxamide)phenoxy)thieno[3,2-b]pyridin-2-yl)-1H-pyrazolyl-1-yl)ethyl glutaminate]	D (1 g of solute is soluble in 30~100 mL of sovent)
CCC(C)C(N)C(=O)OCCn1cc(-c2cc3nccc(Oc4ccc(NC(=O)C5(C(=O)Nc6ccc(F)cc6)CC5)cc4F)c3s2)cn1 (centres unmarked) [td32-4P9, 2-(4-(7-(2-fluoro-4-(1-(4-fluorophenyl)carbamoyl)cyclopropane-1-carboxamide)phenoxy)thieno[3,2-b]pyridin-2-yl)-1H-pyrazolyl-1-yl)ethyl isoleucinate]	D (1 g of solute is soluble in 30~100 mL of sovent)
O=C(Nc1ccc(F)cc1)C1(C(=O)Nc2ccc(Oc3ccnc4cc(-c5cnn(CCOP(=O)(O)O)c5)sc34)c(F)c2)CC1 [td32-4P2, 2-(4-(7-(2-fluoro-4-(1-((4-fluorophenyl)carbamoyl)cyclopropane-1-carboxamide)phenoxy)thieno[3,2-b]pyridin-2-yl)-1H-pyrazolyl-1-yl)ethyl phosphate]	F (1 g of solute is soluble in 1000~10000 mL of sovent)

Tested on: MKN-45 gastric cancer cells
Experiment: Gastric cancer cell MKN45 xenograft model
Format: in vivo, nude mice
Conditions: oral 100 mg·kg^−1 once a day for 14 days
From the text: • 1. Compounds (td32-4, td32-4P3, td32-4P6, td32-4P9, td32-4P10) were selected for in vivo activity evaluation at a single concentration. The animal model was gastric cancer cell MKN45 xenograft model.
Test method: 5×10^6 MKN-45 gastric cancer cells were inoculated under the fat pad of the right rib of nude mice, and the tumor formation was observed. Two weeks after the inoculation, the tumor-bearing mice were divided into groups and orally administered with td32-4, td32-4P3, td32-4P6, td32-4P9, and td32-4P10 at a dose of 100 mg·kg^−1, once a day for 14 days, respectively. Tumor volumes were measured with a caliper and recorded.

SMILES	tumor inhibitory effect (tumor volume)
NCC(=O)OCCn1cc(-c2cc3nccc(Oc4ccc(NC(=O)C5(C(=O)Nc6ccc(F)cc6)CC5)cc4F)c3s2)cn1 [td32-4P6, 2-(4-(7-(2-fluoro-4-(1-((4-fluorophenyl)carbamoyl)cyclopropane-1-carboxamide)phenoxy)thieno[3,2-b]pyridin-2-yl)-1H-pyrazolyl-1-yl)ethyl glycinate]	moderate inhibitory activity
CCC(C)C(N)C(=O)OCCn1cc(-c2cc3nccc(Oc4ccc(NC(=O)C5(C(=O)Nc6ccc(F)cc6)CC5)cc4F)c3s2)cn1 (centres unmarked) [td32-4P9, 2-(4-(7-(2-fluoro-4-(1-(4-fluorophenyl)carbamoyl)cyclopropane-1-carboxamide)phenoxy)thieno[3,2-b]pyridin-2-yl)-1H-pyrazolyl-1-yl)ethyl isoleucinate]	potent tumor inhibitory effect
